For series [1], the system named is SARS-CoV-2 (Wuhan strain). The experiment in a line: Viral titer inhibition assay, SARS-CoV-2 in CaCo-2 cells. Format: cell-based. The following applies: 0–10 µM.
In the next series the test system is CaCo-2 cells. The experiment in a line: Cytotoxicity assay (Cell Counting Kit-8) in CaCo-2 cells. Format: cell-based, human. The following applies: up to 10 µM. As for the experimental part: (§1) To determine the overall cytotoxicity of the tested compounds, Vero cells were cultured for 24 h in 96-well plates to form a confluent monolayer, and then were treated with the tested compounds at concentrations of 2 and 10 µM. After 48 h of cultivation in the dark at 37 °C under 5% CO2, the cell culture medium was aspirated. The potential cytotoxicity of the tested perylene derivatives was determined based on cell viability using Cell Counting Kit-8 (Dojindo Molecular Technologies, Munich, Germany) according to the manufacturer's instructions. The cell viabilities of compound-treated Vero cells were compared with those of control DMSO-treated cells. We also used the above-described protocol to assess the cytotoxicity of the selected perylene antivirals, at concentrations ranging from 0 to 10 µM, in CaCo-2 and CRFK cells.
In general terms: Tetrazolium assays rely on reduction of a dye to a coloured formazan, in cell work by metabolically active cells.

The test system of a further series is SARS-CoV-2. The experiment in a line: Photodynamic inactivation of SARS-CoV-2 virions. The format is cell-based. Conditions: for antiviral effect under red light only: 100 µM; for antiviral effect under red light only / antiviral activity under red light only: dark room, 60 min at 37 °C; for antiviral activity after blue light irradiation of virus-compound mixture: 465–480 nm, 30 mW/cm^2, 10 min, then 60 min at 37 °C in the dark, plaque assay; for antiviral activity under red light only: up to 10 µM. The procedure: Virus in DMEM (titer of 10^5 PFU/mL) was mixed with the compounds (0–10 µM) in a microtiter plate, in triplicate, and irradiated for 10 min at RT with LEDs (465–480 nm) having an approximate power density of 30 mW/cm^2 (device description in supplement). As a negative control, virus was incubated for 10 min in the dark at RT. Subsequently, both irradiated and non-irradiated virus samples were incubated in the dark at 37 °C for 60 min. All manipulation with the samples before and after this incubation, i.e., mixing the compound with the virus, pipetting into a microtiter plate, etc., were performed in daylight. Viral titers were determined by plaque assays (performed also in daylight) and expressed as PFU/mL, as previously described ([Stefanik et al., 2021]). To eliminate the influence of daylight on compound activity, the whole experiment, including all manipulation with samples, was performed in a dark room under red light. The virus sample was mixed with the indicated compounds at concentrations from 0 to 10 μM or 100 μM, incubated for 60 min at 37 °C and virus viability was evaluated using a plaque assay (Fig. 9A).

The nature of series [2]: ROS generation measurement with DMA trap in DMSO. Format: physicochemical. The following applies: for ROS generation, DMA trap, under blue light: 465–480 nm, 30 mW/cm^2, 10 min; for ROS generation, DMA trap, in the dark or with α-tocopherol: 10 min, dark or α-tocopherol (3 µg/mL). As for the experimental part: ROS generation was also estimated using 9,10-dimethylanthracene (DMA), another specific fluorescent singlet oxygen trap, which forms nonfluorescent 9,10-dimethylanthracene endoperoxide after ROS-mediated DMA oxidation. Compounds (0, 0.1, 1, and 10 µM) in DMSO were mixed with DMA (0.5 µM), and these solutions were irradiated for 10 min at room temperature (RT) with light-emitting diodes (LED, 465–480 nm) having approximate power density of 30 mW/cm^2 (device description in Fig. S7). DMA fluorescence intensity was measured at ex/em wavelengths of 370/432 nm in the presence or absence of α-tocopherol (3 µg/mL) as an antioxidant. Singlet oxygen generation was accompanied by a decreased fluorescence signal of the DMA probe ([Zeng et al., 2020]).

Series [3] concerns Vero cells. The experiment in a line: Light-induced cytotoxicity in Vero cells. The format is cell-based, African Green Monkey. Conditions: 0–10 µM, 465–480 nm 10 min, then 24 h in the dark. As for the experimental part:
To determine the light-induced cytotoxicity of the tested compounds, Vero cells were cultured for 24 h in 96-well plates to form a confluent monolayer, and then were treated with the tested compounds at concentrations of 0 to 10 µM. Then, the compound-treated cells were irradiated for 10 min at RT with LEDs (465–480 nm) having an approximate power density of 30 mW/cm^2 (device description in Fig. S7). As a negative control, compound-treated cells were incubated for 10 min in the dark at RT. Subsequently, both irradiated and non-irradiated cell monolayers were incubated in the dark at 37 °C for 24 h. Then, the cell culture medium was aspirated and the potential cytotoxicity of the tested perylene derivatives was determined based on cell viability using Cell Counting Kit-8 (Dojindo Molecular Technologies, Munich, Germany) according to the manufacturer's instructions.

Series [4] in a line: ROS generation rate / quantum yield, DPBF bleaching in methanol. Format: physicochemical. The following applies: for φROS (ROS generation quantum yield): in methanol, DPBF trap, 450–470 nm illumination, riboflavin as reference. From the text:
The ROS generation rate was estimated using the spectrophotometric method, based on the absorption changes of 1,3-diphenylisobenzofuran (DPBF, Sigma Aldrich, Germany) in methanol solution. Irreversible oxidation of DPBF by singlet oxygen results in peroxide formation, and DPBF bleaching. When light of 400–450 nm was used as actinic, DPBF bleaching occurred without any photosensitizer (PS) in solution. Therefore, to study photosensitized ROS generation, we used a white MCWHLP1 LED (Thorlabs, USA) with filters to limit the radiation to the 450–470 nm range (5.5 mW/cm^2).
Spectrophotometric measurements were performed in a Qpod 2e (Quantum Northwest, USA) thermostated cuvette holder at 25 °C with magnetic stirring (500 rpm). Absorption spectra were recorded using a MayaPro spectrophotometer (Ocean Optics, USA) and a stabilized white light source with a SLS201L tungsten lamp (Thorlabs, USA). Illumination was uniform over the entire volume of the cuvette, to prevent artifacts associated with the diffusion of non-reacted components into the illuminated volume of the cuvette. In this case, the rate of irreversible bleaching of DPBF (412 nm) was the same under both continuous and pulsed irradiation with equal total irradiation time. Illumination was performed in a pulsed mode (Fig. S5A), with 1 s of illumination followed by 5 s of dark adaptation, during which the absorption spectrum of the PS-DPBF solution was recorded. Data processing was performed as previously described ([Gvozdev et al., 2020]).

The test system of another series is CRFK cells. The experiment in a line: Cytotoxicity assay (Cell Counting Kit-8) in CRFK cells. Format: cell-based, Felis catus. The following applies: up to 10 µM. As for the experimental part:
as §1

The test system of series [5] is feline infectious peritonitis virus (FIPV). The format is cell-based, feline coronavirus (FCoV). The following applies: 0–10 µM.
Series [6] deals with Vero cells. The experiment in a line: Cytotoxicity assay (Cell Counting Kit-8) in Vero cells. Format: cell-based, African Green Monkey. The following applies: 10 µM, 48 h. The procedure: as §1
Series [7] is described as follows: Fluorescence quantum yield determination. The format is physicochemical. Conditions: in DMSO, relative to rhodamin B. As for the experimental part: The samples’ steady-state fluorescence characteristics were measured in L-format using a Chronos DFD Fluorescence spectrometer (ISS, USA) equipped with a 300 W Cermax xenon arc lamp (ISS, USA), a concave holographic grating monochromator, and a PMT detector. The required amount of each sample was diluted in DMSO and measured in a 1-cm quartz cuvette at a constant temperature of 25 °C. The resulting data were evaluated using Vinci software (ISS, USA) and correlated to the utilized optical configuration.
Absorption spectra were measured using a high-performance Specord S 600 diode spectrophotometer (Jena Analyst, DE). The required amount of each sample was diluted in DMSO, added to 1-cm quartz cuvette, and measured within the selected absorbance spectrum range, against pure DMSO as a blank, at a constant temperature of 25 °C. The results were evaluated using WinASPECT® software (Jena Analyst, DE).
Fluorescence quantum yield was determined following a previously described protocol ([Kozma et al., 2005]; [Magde et al., 1999]; [Williams et al., 1983]). The kinetics of the incorporation of compounds into liposome membrane models was determined using steady-state fluorescence spectroscopy at a constant excitation and emission wavelength, according to the corresponding sample excitation and emission maxima. We added 50 μL of LNP suspension to 0.1 mM of the analyte in PBS, and monitored the increase of fluorescence intensity over the time range from 0 to 1400s. The preparation and characterization of the liposomal suspension is described in the supporting information (Fig. S4).
1. Supplementary material and methods
1.1. Fluorescence quantum yield (QY) determination
The steady-state fluorescence and absorption data were used for quantum yield determination. QY was determined relative to a reference compound, rhodamin B. Absorbance in the range of 0.01–0.1 was used to calculate the QY. We plotted two calibration curves of integrated emission fluorescence intensity as a function of sample absorbance. […]

The nature of series [8]: Spectrofluorometric analysis of interaction with liposomes. Conditions: for penetration into liposomal membranes (in words): EPC/Chol 70/30 mol% liposomes. The format is physicochemical.
On the set-up of series [9]: method as in Magde et al., 1999. The following applies: Water; λ = 514 nm; ref Magde et al., 1999; cited from earlier work.

The values below come from paper PMC10307035, “Antiviral activity of singlet oxygen-photogenerating perylene compounds against SARS-CoV-2: Interaction with the viral envelope and photodynamic virion inactivation” (Virus Research, 2023).

Take `O=C(NCCCCO)c1ccc(-c2ccc3c4cccc5cccc(c6cccc2c63)c54)s1` [Compound 17]: the “anti-SARS-CoV-2 activity in CaCo-2 cells” value in series [1] is on record as “sub-micromolar”. For the same compound, the “tolerability by CaCo-2 cells” value in the series on CaCo-2 cells is listed as “well-tolerated”. In the series on SARS-CoV-2, the “antiviral effect under red light only” value was “no antiviral effect”, the “antiviral activity after blue light irradiation of virus-compound mixture” value (“antiviral activity … of virus-compound mixture” below) is reported as “low-nanomolar” and the “antiviral activity under red light only” value is reported as “completely disappeared”. For the same compound, in series [2], the “ROS generation, DMA trap, under blue light” value is “significant bleaching” and the “ROS generation, DMA trap, in the dark or with α-tocopherol” value is given as “no/limited bleaching”. Also, the “effect of blue light irradiation on cytotoxicity” value (“effect of blue light irradiation” below) in the series on Vero cells [3] is on record as “dramatically increased”. For the same compound, the “φROS (ROS generation quantum yield)” value in [4] worked out at 59.0 ± 2.4%. Moreover, the “tolerability by CRFK cells” value in the series with CRFK cells is recorded as “well-tolerated”. For the same compound, the “replication of FIPV in CRFK cells” value in [5] is reported as “potently suppressed the replication”.

As for `O=c1[nH]c(=O)n([C@H]2C[C@H](O)[C@@H](CO)O2)cc1C#Cc1ccc2c3cccc4cccc(c5cccc1c52)c43` [Compound 2, 5-(perylen-3-yl)ethynyl-2′-deoxy-uridine], in series [1], the “anti-SARS-CoV-2 activity in CaCo-2 cells” value is given as “sub-micromolar”. In addition, the “tolerability by CaCo-2 cells” value in the series on CaCo-2 cells is “well-tolerated”. Further, in the series with SARS-CoV-2, the “antiviral effect under red light only” value is “no antiviral effect”, the “antiviral activity … of virus-compound mixture” value is listed as “low-nanomolar” and the “antiviral activity under red light only” value was “completely disappeared”. In [2], the “ROS generation, DMA trap, under blue light” value is “significant bleaching” and the “ROS generation, DMA trap, in the dark or with α-tocopherol” value is listed as “no/limited bleaching”. The “effect of blue light irradiation” value in the series on Vero cells [3] is “dramatically increased”. In addition, in [4], the “φROS (ROS generation quantum yield)” value turned out to be 20.9 ± 0.2%. In addition, the “tolerability by CRFK cells” value in the series with CRFK cells is “well-tolerated”. Also, in series [5], the “replication of FIPV in CRFK cells” value is “potently suppressed the replication”.

With `CN(C)c1ccc(C#Cc2ccc3c4cccc5cccc(c6cccc2c63)c54)cc1` [Compound 14], the “cell viability (in words)” value with Vero cells [6] is “moderately decreased cell viability”. Also, the “antiviral activity … of virus-compound mixture” value with SARS-CoV-2 is on record as “viral titer decreased by less than an order of magnitude”. Besides, the fluorescence quantum yield in [7] turned out to be 8%. For the same compound, in series [8], the “solubility in water (in words)” value is listed as “poorly soluble in water”. In [8] (10 µM in PBS), the “penetration into liposomal membranes (in words)” value is “slow and very gradual”. Besides, in series [8] (at 540 nm, 10 µM in PBS), the “fluorescence intensity after mixing with liposomes” value is recorded as 10^3 CPS. The “ROS generation, DMA trap, under blue light” value in series [2] is listed as “minimal photodynamic activities”. Moreover, in the series on Vero cells [3], the “effect of blue light irradiation” value is “no effect”. Further, the “φROS (ROS generation quantum yield)” value in [4] was 7.1 ± 0.2%. The “photodynamic activity (DPBF trap, in words)” value in [4] (methanol, 450–470 nm) was “minimal”.

Turning to `CCN(CC)c1ccc2c(-c3ccccc3C(=O)O)c3ccc(=[N+](CC)CC)cc-3oc2c1.[Cl-]` [rhodamin B], the “QYr (fluorescence quantum yield of reference)” value in series [9] is 31%.

With `O=C(O)c1ccc(-c2ccc3c4cccc5cccc(c6cccc2c63)c54)s1` [Compound 16], in series [7], the fluorescence quantum yield was determined as 61%. Besides, the “penetration into liposomal membranes (in words)” value in series [8] (10 µM in PBS) is “penetrated the liposomal membranes very quickly and efficiently”. Also, in series [8] (at 520 nm, after 1400 s, 10 µM in PBS), the “steady-state fluorescence signal after mixing with liposomes” value is listed as “about 10^5 CPS”. For the same compound, the “φROS (ROS generation quantum yield)” value in series [4] turned out to be 59.0 ± 1.8%.
